Reference: patent US10941157B2, “Pesticidal compositions and uses thereof” (Gilead Apollo, LLC, priority 2015, dated 2021)
In brackets after ≈: the same amount, converted by molar mass. Like-named read-outs stand apart in the source and are kept apart here.

How the values were obtained:
Type in all cases: cell-based
Botrtyis cinerea (Bc) = assay: In vitro pathogen growth inhibition assay, Bc; conditions: 48 h
Procedure: (§1) A growth inhibition assay was conducted to determine the ability of compounds to control the growth of fungal pathogens, such as Botrtyis cinerea (Bc), Collectotrichum graminicola (Cg), Diplodia maydis (Dm), Fusarium moniliforme (Fm), Fusarium virguliforme (Fv), Phytophthora capsici (Pc), Rhizoctonia solani (Rs), and Septoria tritici (St). The compounds listed in Table 1 were each dissolved in DMSO at 2.5 mg/ml to produce compound stock solutions (“stocks”). […] Negative controls on each plate included 2% DMSO, water, and a blank (media+2% DMSO). Fungal spores were isolated from previously sub-cultured plates of Botrtyis cinerea (Bc), Collectotrichum graminicola (Cg), Diplodia maydis (Dm), Fusarium moniliforme (Fm), Fusarium virguliforme (Fv), Phytophthora capsici (Pc), and Septoria tritici (St). The isolated spores were diluted to individual concentrations with a 17% V8 liquid media. For Rhizoctonia solani (Rs), 1.5 mm mycelial plugs were used in place of spores and ¼ Potato Dextrose Broth (PDB) was used for dilution. The spore concentrations and plug sizes were based on growth curves generated at 48 hours for each pathogen. In a second 96-well plate, the spores or mycelial plugs, media, diluted compound solutions, and controls were combined. Once the compound was added, a true final concentration of compound in each well was measured by an OD600 reading, which adjusted for any compound precipitation that might have occurred in the well. Plate readings were repeated at both 24 and 48 hours. The blank negative control was used as a background subtraction. Additional visual ratings were performed at both 24 and 48 hours for checking on precipitation and confirming efficacy. […] Both tables list the concentration of each compound that was sufficient to ≥90% inhibition of growth for each of the fungal pathogens listed above. In addition, some of compounds were tested in a yeast growth inhibition assay for Saccharomyces cerevisiae (Sc). Table 2 lists the concentration of the tested compound that was sufficient to ≥75% inhibition of Saccharomyces cerevisiae (Sc).

[1] = test system: Collectotrichum graminicola (Cg); assay: In vitro pathogen growth inhibition assay, Cg; conditions: 48 h
Procedure: as §1

Diplodia maydis (Dm) = assay: In vitro pathogen growth inhibition assay, Dm; conditions: Stenocarpella maydis, 48 h
Procedure: as §1

[2] = test system: Fusarium moniliforme (Fm); assay: In vitro pathogen growth inhibition assay, Fm; conditions: Fusarium verticillioides
Procedure: as §1

[3] = test system: Fusarium virguliforme (Fv); assay: In vitro pathogen growth inhibition assay, Fv
Procedure: as §1

[4] = test system: Phytophthora capsici (Pc); assay: In vitro pathogen growth inhibition assay, Pc; conditions: 48 h
Procedure: as §1

Rhizoctonia solani (Rs) = assay: In vitro pathogen growth inhibition assay, Rs (mycelial plugs); conditions: Rhizoctonia solani, 48 h
Procedure: as §1

Septoria tritici (St) = assay: In vitro pathogen growth inhibition assay, St; conditions: Zymoseptoria tritici, 48 h
Procedure: as §1

[5] = ≥90% growth inhibition, 48 hours, vs 2% DMSO control, read-out: Compound Concentration (ppm) sufficient for ≥90% inhibition of Bc
[6] = ≥90% growth inhibition, 48 hours, vs 2% DMSO control, read-out: Compound Concentration (ppm) sufficient for ≥90% inhibition of Cg
[7] = ≥90% growth inhibition, 48 hours, vs 2% DMSO control, read-out: Compound Concentration (ppm) sufficient for ≥90% inhibition of Dm
[8] = ≥90% growth inhibition, 48 hours, vs 2% DMSO control, read-out: Compound Concentration (ppm) sufficient for ≥90% inhibition of Fm
[9] = ≥90% growth inhibition, 48 hours, vs 2% DMSO control, read-out: Compound Concentration (ppm) sufficient for ≥90% inhibition of Fv
[10] = ≥90% growth inhibition, 48 hours, vs 2% DMSO control, read-out: Compound Concentration (ppm) sufficient for ≥90% inhibition of Pc
[11] = ≥90% growth inhibition, mycelial plugs, 48 hours, vs 2% DMSO control, read-out: Compound Concentration (ppm) sufficient for ≥90% inhibition of Rs
[12] = ≥90% growth inhibition, 48 hours, vs 2% DMSO control, read-out: Compound Concentration (ppm) sufficient for ≥90% inhibition of St
[13] = ≥90% inhibition, 48 hours vs 2% DMSO control, read-out: Compound Concentration (ppm) sufficient for ≥90% inhibition of growth, Bc
[14] = ≥90% inhibition, 48 hours vs 2% DMSO control, read-out: Compound Concentration (ppm) sufficient for ≥90% inhibition of growth, Cg
[15] = ≥90% inhibition, 48 hours vs 2% DMSO control, read-out: Compound Concentration (ppm) sufficient for ≥90% inhibition of growth, Dm
[16] = ≥90% inhibition, 48 hours vs 2% DMSO control, read-out: Compound Concentration (ppm) sufficient for ≥90% inhibition of growth, Fm
[17] = ≥90% inhibition, 48 hours vs 2% DMSO control, read-out: Compound Concentration (ppm) sufficient for ≥90% inhibition of growth, Fv
[18] = ≥90% inhibition, 48 hours vs 2% DMSO control, read-out: Compound Concentration (ppm) sufficient for ≥90% inhibition of growth, Pc
[19] = ≥90% inhibition, mycelial plugs, 48 hours vs 2% DMSO control, read-out: Compound Concentration (ppm) sufficient for ≥90% inhibition of growth, Rs
[20] = ≥90% inhibition, 48 hours vs 2% DMSO control, read-out: Compound Concentration (ppm) sufficient for ≥90% inhibition of growth, St
[21] = concentration sufficient to ≥90% inhibition of growth, 48 hours vs 2% DMSO control, read-out: Compound Concentration (ppm) for ≥90% inhibition, Bc
[22] = concentration sufficient to ≥90% inhibition of growth, 48 hours vs 2% DMSO control, read-out: Compound Concentration (ppm) for ≥90% inhibition, Cg
[23] = concentration sufficient to ≥90% inhibition of growth, 48 hours vs 2% DMSO control, read-out: Compound Concentration (ppm) for ≥90% inhibition, Dm
[24] = concentration sufficient to ≥90% inhibition of growth, 48 hours vs 2% DMSO control, read-out: Compound Concentration (ppm) for ≥90% inhibition, Fm
[25] = concentration sufficient to ≥90% inhibition of growth, 48 hours vs 2% DMSO control, read-out: Compound Concentration (ppm) for ≥90% inhibition, Fv
[26] = concentration sufficient to ≥90% inhibition of growth, 48 hours vs 2% DMSO control, read-out: Compound Concentration (ppm) for ≥90% inhibition, Pc
[27] = concentration sufficient to ≥90% inhibition of growth, 48 hours vs 2% DMSO control, read-out: Compound Concentration (ppm) for ≥90% inhibition, Rs
[28] = concentration sufficient to ≥90% inhibition of growth, 48 hours vs 2% DMSO control, read-out: Compound Concentration (ppm) for ≥90% inhibition, St

COc1ccc(F)cc1[C@@H](O)Cn1c(=O)n(C(C)(C)C(=O)NC(C)C)c(=O)c2c(C)c(-n3cccn3)sc21 [Compound I-187] showed an IC90 (Botrtyis cinerea (Bc); [5]) of 2 µg/mL (≈ 3.68 µM), an IC90 [1, 6] of 10 µg/mL (≈ 18.4 µM) and an IC90 (Diplodia maydis (Dm); [7]) of 10 µg/mL (≈ 18.4 µM). For the same compound, the IC90 [2, 8] was 0.4 µg/mL (≈ 0.736 µM), the IC90 [3, 9] was 0.4 µg/mL (≈ 0.736 µM) and the IC90 [4, 10] was at least 50 µg/mL. For the same compound, the IC90 (Rhizoctonia solani (Rs); [11]) was 0.4 µg/mL (≈ 0.736 µM) and the IC90 (Septoria tritici (St); [12]) was over 50 µg/mL.
Work on Cc1c(-n2nccn2)sc2c1c(=O)n(C(C)(C)C(=O)NC(C)C)c(=O)n2C[C@H](OCC(C)(C)O)c1cc(F)ccc1OCC#N [Compound I-278] yielded an IC90 (Botrtyis cinerea (Bc); [5]) of 2 µg/mL (≈ 3.12 µM), an IC90 [1, 6] of 0.4 µg/mL (≈ 0.623 µM) and an IC90 (Diplodia maydis (Dm); [7]) of 2 µg/mL (≈ 3.12 µM). For the same compound, the IC90 [2, 8] was 0.4 µg/mL (≈ 0.623 µM), the IC90 [3, 9] was 2 µg/mL (≈ 3.12 µM) and the IC90 [4, 10] was 10 µg/mL (≈ 15.6 µM). It also gave an IC90 (Rhizoctonia solani (Rs); [11]) of 0.4 µg/mL (≈ 0.623 µM) and an IC90 (Septoria tritici (St); [12]) of over 50 µg/mL.
For COc1ccc(F)cc1[C@H](Cn1c(=O)n(C(C)(C)C(=O)N2CCCC2)c(=O)c2c(C)c(-n3cccn3)sc21)OCCO [Compound I-159], the IC90 (Botrtyis cinerea (Bc); [13]) was 10 µg/mL (≈ 16.7 µM), the IC90 [1, 14] was at least 10 µg/mL and the IC90 (Diplodia maydis (Dm); [15]) was at least 50 µg/mL. It also gave an IC90 [2, 16] of 2 µg/mL (≈ 3.34 µM), an IC90 [3, 17] of 2 µg/mL (≈ 3.34 µM) and an IC90 [4, 18] of over 50 µg/mL. For the same compound, the IC90 (Rhizoctonia solani (Rs); [19]) was at least 10 µg/mL and the IC90 (Septoria tritici (St); [20]) was over 50 µg/mL.
COc1ccc(F)cc1[C@H](Cn1c(=O)n(C(C)(C)C(=O)N2CCCC2)c(=O)c2c(C)c(-n3cccn3)sc21)OCC(C)(C)O [Compound I-138] gave an IC90 (Botrtyis cinerea (Bc); [13]) of 10 µg/mL (≈ 15.9 µM), an IC90 [1, 14] of 10 µg/mL (≈ 15.9 µM) and an IC90 (Diplodia maydis (Dm); [15]) of at least 10 µg/mL. It also gave an IC90 [2, 16] of 0.4 µg/mL (≈ 0.637 µM), an IC90 [3, 17] of 10 µg/mL (≈ 15.9 µM) and an IC90 [4, 18] of over 50 µg/mL. The IC90 (Rhizoctonia solani (Rs); [19]) was at least 2 µg/mL and the IC90 (Septoria tritici (St); [20]) was over 50 µg/mL.
In the case of COc1ccc(F)cc1[C@H](Cn1c(=O)n(C(C)(C)C(=O)NC(C)C)c(=O)c2c(C)c(-n3cncn3)sc21)OCCC#N [Compound I-317], the IC90 (Botrtyis cinerea (Bc); [21]) is reported as 50 µg/mL (≈ 83.7 µM), the IC90 [1, 22] is reported as 50 µg/mL (≈ 83.7 µM) and the IC90 (Diplodia maydis (Dm); [23]) is reported as over 50 µg/mL. It also gave an IC90 [2, 24] of 10 µg/mL (≈ 16.7 µM), an IC90 [3, 25] of at least 10 µg/mL and an IC90 [4, 26] of over 50 µg/mL. It also gave an IC90 (Rhizoctonia solani (Rs); [27]) of over 50 µg/mL and an IC90 (Septoria tritici (St); [28]) of over 50 µg/mL.
Compound COCCO[C@@H](Cn1c(=O)n(C(C)(C)C(=O)N2CCCC2)c(=O)c2c(C)c(-n3nccn3)sc21)c1cc(F)ccc1C [Compound I-249] has an IC90 (Botrtyis cinerea (Bc); [5]) of 2 µg/mL (≈ 3.34 µM), an IC90 [1, 6] of 2 µg/mL (≈ 3.34 µM) and an IC90 (Diplodia maydis (Dm); [7]) of at least 10 µg/mL. For the same compound, the IC90 [2, 8] was 2 µg/mL (≈ 3.34 µM), the IC90 [3, 9] was 2 µg/mL (≈ 3.34 µM) and the IC90 [4, 10] was over 50 µg/mL. For the same compound, the IC90 (Rhizoctonia solani (Rs); [11]) was 10 µg/mL (≈ 16.7 µM) and the IC90 (Septoria tritici (St); [12]) was over 50 µg/mL.
With CCOC(=O)c1sc2c(c1C)c(=O)n(C(C)(C)C(=O)N1CCCC1)c(=O)n2C[C@H](OCCC#N)c1cc(F)ccc1OC [Compound I-182] the IC90 (Botrtyis cinerea (Bc); [5]) was 2 µg/mL (≈ 3.25 µM), the IC90 [1, 6] was 2 µg/mL (≈ 3.25 µM) and the IC90 (Diplodia maydis (Dm); [7]) was 2 µg/mL (≈ 3.25 µM). For the same compound, the IC90 [2, 8] was 0.08 µg/mL (≈ 0.13 µM), the IC90 [3, 9] was 2 µg/mL (≈ 3.25 µM) and the IC90 [4, 10] was over 50 µg/mL. The IC90 (Rhizoctonia solani (Rs); [11]) was 0.4 µg/mL (≈ 0.651 µM) and the IC90 (Septoria tritici (St); [12]) was over 50 µg/mL.
COCCO[C@@H](Cn1c(=O)n([C@@H](C)C(=O)NC(C)C)c(=O)c2c(C)c(-n3cccn3)sc21)c1cc(F)ccc1OC [Compound I-311] was tested, and the IC90 (Botrtyis cinerea (Bc); [21]) was 50 µg/mL (≈ 85.1 µM), the IC90 [1, 22] was over 50 µg/mL and the IC90 (Diplodia maydis (Dm); [23]) was over 50 µg/mL. It also gave an IC90 [2, 24] of 50 µg/mL (≈ 85.1 µM), an IC90 [3, 25] of over 50 µg/mL and an IC90 [4, 26] of over 50 µg/mL. For the same compound, the IC90 (Rhizoctonia solani (Rs); [27]) was over 50 µg/mL and the IC90 (Septoria tritici (St); [28]) was over 50 µg/mL.
CCNC(=O)C(C)(C)n1c(=O)c2c(C)c(-n3nccn3)sc2n(C[C@H](OC2CCOCC2)c2ccccc2OC)c1=O [Compound I-032] gave an IC90 (Botrtyis cinerea (Bc); [13]) of 0.4 µg/mL (≈ 0.67 µM), an IC90 [1, 14] of at least 2 µg/mL and an IC90 (Diplodia maydis (Dm); [15]) of 10 µg/mL (≈ 16.8 µM). It also gave an IC90 [2, 16] of 0.08 µg/mL (≈ 0.134 µM), an IC90 [3, 17] of 10 µg/mL (≈ 16.8 µM) and an IC90 [4, 18] of over 50 µg/mL. For the same compound, the IC90 (Rhizoctonia solani (Rs); [19]) was 10 µg/mL (≈ 16.8 µM) and the IC90 (Septoria tritici (St); [20]) was over 50 µg/mL.
